“Also recorded” adds a separate entry of the source.
Tests used:
[1] = biological target: T1, His-HIF-1α1–350 with GST-HIF-1β1–474 (Homo sapiens, UniProt Q16665); assay: ELISA of HIF-1 dimerization; assay type: biochemical; conditions: pH 7.5, 30 min preincubation, room temperature
T1 construct: heterodimerization of His-HIF-1α1–350 with GST-HIF-1β1–474 analyzed by ELISA; made in house; host or cells: E. coli BL21(DE3)
Description: We next probed the effect of cyclo-CLLFVY on the interaction of HIF-1α with HIF-1β in vitro. […] Unfortunately, the positively charged Tat-tag of P1 is incompatible with EMSA (interferes with the bandshift of DNA). […] To determine the HIF-1-specificity of cyclo-CLLFVY, we assessed its ability to disrupt HIF-2 dimerization by ELISA. Recombinant His-HIF-2α1–351 was produced and purified, and shown to form functional heterodimers with GST-HIF-1β1–474 by EMSA (Figure S5B).
HIF-1β1-474, *please note that isoform 3 of HIF-1β was used). The standard protocol for protein expression was followed. Briefly, a 1 % culture in LB was incubated at 37 °C with shaking until OD600 of 0.6 was reached. 0.1 mM IPTG was added and the liquid culture incubated with shaking at 18 °C overnight. Cell pellets were suspended in MHW buffer9 (approximately 4 ml buffer per 1 g cell pellet). Lysozyme (100 µg/ml) was added to the lysate and the solution was incubated with shaking for 20 min at 5 °C. […]
glycerol) was added to individual wells of a Pierce Ni2+-coated 96-well plate (Thermo Scientific, catalogue no. […] The stated quantity of inhibitor (P1 or P2) was added as a solution in 100 µL of buffer to the desired wells, and the plate incubated at room temperature for 30 minutes. […]

[2] = test system: VEGF mRNA in hypoxic U2OS cells; assay: VEGF mRNA qPCR, U2OS; assay type: cell-based, human; conditions: hypoxia 16 h, 100 μM
Protocol: (§1) Cells were treated with the stated concentrations of inhibitor (P1, P2, or P3) and incubated in normoxia for 4 h, followed by incubation in a hypoxic environment. All manipulation of cell pellets (e.g., lysis, mRNA, and protein extraction) was conducted in a hypoxic environment.
(§2) Total RNA was extracted from MCF-7 and U2OS cells using RNeasy Mini Kit (74104, QIAGEN) and quantified using a Nanodrop ND-1000 spectrophotometer. Complementary DNA was synthesized in a 20 μL reaction containing 1 μg of total RNA, using qScript cDNA SuperMix (95048-100, Quanta Biosciences) according to the manufacturer’s instructions. Quantitative real-time PCRs were performed using Universal Taqman PCR master mix (Applied Biosystems) >and the Taqman gene expression assay of interest (Applied Biosystems) on an ABI StepOnePlus Real-Time PCR system (Applied Biosystems). Expression assays used in this study were HIF-1α (00936376_m1), VEGF-A (Hs00173626_m1), CAIX (Hs00154208_m1), LOX (Hs00942480_m1), HIF2α (Hs01026149_m1), CITED2 (Hs01897804_s1), and 18S (Hs99999901_m1). All expression values were normalized using expression of 18S.

[3] = test system: U2OS-luc control cell line stably expressing luciferase; assay: Control constitutive luciferase reporter, U2OS-luc; assay type: cell-based, human
Description: Figure S3: Identification of cyclic peptide HIF-1 inhibitors. (A) SICLOPPS expression is induced by arabinose, which processes to give a member of the cyclic peptide library. A dimerization inhibitor would be expected to rescue growth of the HIF-1 RTHS on selective media plates containing IPTG, kanamycin and 3-amino-triazole, and arabinose. (B) The ability of the selected cyclic peptides to […]
HIF-1 RTHS containing the corresponding SICLOPPS plasmid onto selective media. In the absence of arabinose the SICLOPPS split-intein is not produced; the HIF-1 RTHS containing plasmids encoding […]
colonies show survival on selective media plates containing IPTG and arabinose (panel 2). Expressing the 3 selected cyclic peptides from mutant SICLOPPS inteins (H24A, F26A mutations in the C- […]
cyclic form of the peptides and their activity. […]
expressing a constitutive luciferase reporter construct. […]

[4] = test system: CAIX mRNA in hypoxic U2OS cells; assay: CAIX mRNA qPCR, U2OS; assay type: cell-based, human; conditions: hypoxia, 100 μM
Protocol: as §1, §2

What does the source list for “Tat-cyclo-CRLMVL (head to tail) [P2, cyclo-CRLMVL tagged with Tat peptide via a disulfide bond; used as negative control]”?
effect on HIF-1 dimerization [1]: does not disrupt HIF-1 dimerization; also recorded: had no effect on HIF-1 dimerization; VEGF mRNA [2]: had no effect; effect on constitutive luciferase signal [3]: do not affect; CAIX mRNA [4]: no effect

From article PMC3715890, “A Cyclic Peptide Inhibitor of HIF-1 Heterodimerization That Inhibits Hypoxia Signaling in Cancer Cells” (Journal of the American Chemical Society, 2013)
